Measured values published in patent publication US20230278972A1, “SUBSTITUTED HALOALKYL SULFONANILIDE HERBICIDES” (FMC Corporation, priority 2020, published 2023).

Columns and labels:
Type in all cases: in vivo
[1] = test system: barnyardgrass (Echinochloa crus-galli); experiment: Test A preemergence, barnyardgrass; settings: Preemergence; for Plant response rating, Barnyardgrass: 0 to 100 scale (0 no effect, 100 complete control); for Barnyardgrass plant response rating: 125 g ai/ha, visual injury on 0 to 100 scale (0 no effect, 100 complete control), approximately 10 days
Procedure, shortened: (§1)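 Seeds are sown in loam mixed with sand and sprayed on the soil surface right after planting for the preemergence test. Postemergence pots are sprayed once seedlings reach 2 to 10 cm at the one- to two-leaf stage. The same surfactant-containing, non-phytotoxic solvent formulation serves both.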

kochia (Bassia scoparia) [2] = experiment: Test A preemergence, kochia; settings: Preemergence; for Plant response rating, Kochia: 0 to 100 scale (0 no effect, 100 complete control); for Kochia plant response rating: 125 g ai/ha, visual injury on 0 to 100 scale (0 no effect, 100 complete control), approximately 10 days
Procedure, shortened: as §1

[3] = test system: ragweed (common ragweed, Ambrosia artemisiifolia); experiment: Test A preemergence, ragweed; settings: Preemergence; for Plant response rating, Ragweed: 0 to 100 scale (0 no effect, 100 complete control); for Ragweed plant response rating: 125 g ai/ha, visual injury on 0 to 100 scale (0 no effect, 100 complete control), approximately 10 days
Procedure, shortened: as §1

[4] = test system: Ryegrass, Italian (Italian ryegrass, Lolium multiflorum); experiment: Test A preemergence, Ryegrass, Italian; settings: Preemergence; for Plant response rating, Ryegrass, Italian: 0 to 100 scale (0 no effect, 100 complete control); for Ryegrass, Italian plant response rating: 125 g ai/ha, visual injury on 0 to 100 scale (0 no effect, 100 complete control), approximately 10 days
Procedure, shortened: as §1

[5] = test system: Foxtail, Giant (giant foxtail, Setaria faberi); experiment: Test A preemergence, Foxtail, Giant; settings: Preemergence; for Plant response rating, Foxtail, Giant: 0 to 100 scale (0 no effect, 100 complete control); for Foxtail, Giant plant response rating: 125 g ai/ha, visual injury on 0 to 100 scale (0 no effect, 100 complete control), approximately 10 days
Procedure, shortened: as §1

[6] = test system: pigweed (Amaranthus retroflexus); experiment: Test A preemergence, pigweed; settings: for Plant response rating, Pigweed: 0 to 100 scale (0 no effect, 100 complete control); for Pigweed plant response rating: 125 g ai/ha, visual injury on 0 to 100 scale (0 no effect, 100 complete control), approximately 10 days
Procedure, shortened: as §1

[7] = test system: barnyardgrass (Echinochloa crus-galli); experiment: Test A postemergence, barnyardgrass; settings: Postemergence, 0 to 100 scale (0 no effect, 100 complete control); for Barnyardgrass plant response rating: 500 g ai/ha, visual injury vs untreated controls after approx. 10 days
Procedure, shortened: as §1

kochia (Bassia scoparia) [8] = experiment: Test A postemergence, kochia; settings: Postemergence, 0 to 100 scale (0 no effect, 100 complete control); for Kochia plant response rating: 500 g ai/ha, visual injury vs untreated controls after approx. 10 days
Procedure, shortened: as §1

[9] = test system: ragweed (common ragweed, Ambrosia artemisiifolia); experiment: Test A postemergence, ragweed; settings: Postemergence, 0 to 100 scale (0 no effect, 100 complete control); for Ragweed plant response rating: 500 g ai/ha, visual injury vs untreated controls after approx. 10 days
Procedure, shortened: as §1

[10] = test system: Ryegrass, Italian (Italian ryegrass, Lolium multiflorum); experiment: Test A postemergence, Ryegrass, Italian; settings: Postemergence, 0 to 100 scale (0 no effect, 100 complete control); for Ryegrass, Italian plant response rating: 500 g ai/ha, visual injury vs untreated controls after approx. 10 days
Procedure, shortened: as §1

[11] = test system: Foxtail, Giant (giant foxtail, Setaria faberi); experiment: Test A postemergence, Foxtail, Giant; settings: Postemergence, 0 to 100 scale (0 no effect, 100 complete control); for Foxtail, Giant plant response rating: 500 g ai/ha, visual injury vs untreated controls after approx. 10 days
Procedure, shortened: as §1

[12] = test system: pigweed (Amaranthus retroflexus); experiment: Test A postemergence, pigweed; settings: Postemergence, 0 to 100 scale (0 no effect, 100 complete control); for Pigweed plant response rating: 500 g ai/ha, visual injury vs untreated controls after approx. 10 days
Procedure, shortened: as §1

[13] = test system: wheat (Triticum aestivum); experiment: Test A postemergence, wheat; settings: Postemergence, 0 to 100 scale (0 no effect, 100 complete control); for Wheat plant response rating: 500 g ai/ha, visual injury vs untreated controls after approx. 10 days
Procedure, shortened: as §1

corn (Zea mays) = experiment: Test A postemergence, corn; settings: Postemergence, 0 to 100 scale (0 no effect, 100 complete control); for Corn plant response rating: 500 g ai/ha, visual injury vs untreated controls after approx. 10 days
Procedure, shortened: as §1

[14] = test system: blackgrass (Alopecurus myosuroides); experiment: Test A postemergence, blackgrass; settings: Postemergence, 0 to 100 scale (0 no effect, 100 complete control); for Blackgrass plant response rating: 500 g ai/ha, visual injury vs untreated controls after approx. 10 days
Procedure, shortened: as §1

[15] = test system: galium (catchweed bedstraw, Galium aparine); experiment: Test A postemergence, galium; settings: Postemergence, 0 to 100 scale (0 no effect, 100 complete control); for Galium plant response rating: 500 g ai/ha, visual injury vs untreated controls after approx. 10 days
Procedure, shortened: as §1

[16] = 1000 g ai/ha, visual injury, approx. 10 days
[17] = 125 g ai/ha, visual injury approx. 10 days

Compound | Barnyardgrass plant response rating [1] | Plant response rating, Barnyardgrass ([1]; 500 g ai/ha) | Kochia plant response rating (kochia (Bassia scoparia) [2]) | Plant response rating, Kochia (kochia (Bassia scoparia) [2]; 500 g ai/ha) | Ragweed plant response rating [3] | Plant response rating, Ragweed ([3]; 500 g ai/ha) | Ryegrass, Italian plant response rating [4] | Plant response rating, Ryegrass, Italian ([4]; 500 g ai/ha) | Foxtail, Giant plant response rating [5] | Plant response rating, Foxtail, Giant ([5]; 500 g ai/ha) | Pigweed plant response rating [6] | Plant response rating, Pigweed ([6]; 500 g ai/ha) | Plant response rating, Barnyardgrass [7, 17] | Barnyardgrass plant response rating [7] | Plant response rating, Kochia (kochia (Bassia scoparia) [8]; [17]) | Kochia plant response rating (kochia (Bassia scoparia) [8]) | Plant response rating, Ragweed [9, 17] | Ragweed plant response rating [9] | Plant response rating, Ryegrass, Italian [10, 17] | Ryegrass, Italian plant response rating [10] | further results
COC(=O)C1CCN(C(=O)c2cc(NS(=O)(=O)C(F)(F)F)c(C)cc2C)CC1 [Compound 50] |  |  |  |  |  |  |  |  |  |  |  |  |  |  |  |  |  |  |  |  | Plant response rating, Barnyardgrass ([1]; 1000 g ai/ha): 100; Plant response rating, Kochia (kochia (Bassia scoparia) [2]; 1000 g ai/ha): 90; Plant response rating, Ragweed ([3]; 1000 g ai/ha): 80; Plant response rating, Ryegrass, Italian ([4]; 1000 g ai/ha): 70; Plant response rating, Foxtail, Giant ([5]; 1000 g ai/ha): 100; Plant response rating, Pigweed ([6]; 1000 g ai/ha): 100; Plant response rating, Barnyardgrass [7, 16]: 60; Plant response rating, Kochia (kochia (Bassia scoparia) [8]; [16]): 60; Plant response rating, Ragweed [9, 16]: 50; Plant response rating, Ryegrass, Italian [10, 16]: 90; Plant response rating, Foxtail, Giant [11, 16]: 90; Plant response rating, Pigweed [12, 16]: 90; Plant response rating, Wheat [13, 16]: 50; Plant response rating, Corn (corn (Zea mays); [16]): 10; Plant response rating, Blackgrass [14, 16]: 20; Plant response rating, Galium [15, 16]: 90
CCn1nc(Cl)cc(-c2cc(NS(=O)(=O)C(F)(F)F)c(C)cc2C)c1=O [Compound 51] | 100 | 100 | 80 | 90 | 60 | 90 | 90 | 100 | 100 | 100 | 80 | 90 | 30 | 80 | 10 | 60 | 50 | 80 | 70 | 80 | Plant response rating, Foxtail, Giant [11, 17]: 30; Foxtail, Giant plant response rating [11]: 80; Plant response rating, Pigweed [12, 17]: 60; Pigweed plant response rating [12]: 80; Plant response rating, Wheat [13, 17]: 50; Wheat plant response rating [13]: 60; Plant response rating, Corn (corn (Zea mays); [17]): 0; Corn plant response rating (corn (Zea mays)): 20; Plant response rating, Blackgrass [14, 17]: 20; Blackgrass plant response rating [14]: 70; Plant response rating, Galium [15, 17]: 40; Galium plant response rating [15]: 60
CCn1nc(C)cc(-c2cc(N(S(=O)(=O)C(F)(F)F)S(=O)(=O)C(F)(F)F)c(C)cc2C)c1=O [Compound 52] | 100 | 100 | 70 | 90 | 10 | 60 | 90 | 90 | 100 | 100 | 50 | 90 | 0 | 80 | 30 | 80 | 30 | 60 | 20 | 40 | Plant response rating, Foxtail, Giant [11, 17]: 0; Foxtail, Giant plant response rating [11]: 80; Plant response rating, Pigweed [12, 17]: 30; Pigweed plant response rating [12]: 50; Plant response rating, Wheat [13, 17]: 60; Wheat plant response rating [13]: 70; Plant response rating, Corn (corn (Zea mays); [17]): 0; Corn plant response rating (corn (Zea mays)): 0; Plant response rating, Blackgrass [14, 17]: 0; Blackgrass plant response rating [14]: 80; Plant response rating, Galium [15, 17]: 60; Galium plant response rating [15]: 80
